CNC(=O)c1cc(Oc2ccc(N)cc2)ccn1
solubility (mole fraction)
Conditions | in THF | in acetonitrile | in ethanol | in ethyl acetate | in methanol | in n-butanol | in n-propanol
278.15 K | 0.0898 | 0.0273 | 0.00539 | 0.0528 | 0.00809 | 0.00322 | 0.00451
283.15 K | 0.0978 | 0.0317 | 0.00707 | 0.0637 | 0.0117 | 0.0044 | 0.00593
288.15 K | 0.108 | 0.0394 | 0.00914 | 0.0773 | 0.0158 | 0.00563 | 0.00778
293.15 K | 0.118 | 0.0491 | 0.0136 | 0.0919 | 0.0203 | 0.00781 | 0.0111
298.15 K | 0.129 | 0.0595 | 0.0179 | 0.11 | 0.0276 | 0.00986 | 0.0135
303.15 K | 0.143 | 0.0737 | 0.0249 | 0.129 | 0.0369 | 0.0132 | 0.0181
308.15 K | 0.158 | 0.0897 | 0.0331 | 0.151 | 0.0488 | 0.0171 | 0.0237
313.15 K | 0.173 | 0.109 | 0.044 | 0.179 | 0.0634 | 0.0222 | 0.0308
318.15 K | 0.192 | 0.133 | 0.0587 | 0.207 | 0.082 | 0.0287 | 0.0396
323.15 K | 0.211 | 0.161 | 0.0764 | 0.238 | 0.105 | 0.0366 | 0.0503
328.15 K | 0.233 | 0.195 | 0.0999 | 0.28 | 0.134 | 0.0466 | 0.0638
